The values that follow are results of earlier work, collected in patent US20150099002A1, “MEANS AND METHODS FOR ENHANCING WEIGHT GAIN IN POULTRY” (Nutrinia Ltd., priority 2007, published 2015).

This data set deals with Cobb male chicks. The following applies: through drinking water or feed, high amounts, at least 21 days.

For the substance “insulin: insulin provided to chicks through drinking water or feed in WO 2005/115473”, the “weight gain compared to same feed without insulin” value is on record as “higher weight gain”.
